In patent US4368203A, “Antibiotics and derivatives thereof having β-lactamase inhibitory activity and production thereof” (priority 1977, dated 1983):
Converted amounts (≈) assume the structure as drawn. “Also recorded” adds a separate entry of the source. Read-outs that look alike come from different tables or passages of the source.

Experiments:
[1] = tested on: Enterobacter cloacae E-16; experiment: MIC, broth dilution method; assay type: cell-based; details: Enterobacter cloacae, E16, 20 h, lactamase producing organism, read-out: Minimum inhibitory concentration
Method: Sodium salt of the antibiotic PS-7 was dissolved and diluted with the BRAIN HEART INFUSION BROTH "Eiken" at a concentration between 5 μg/ml and 100 μg/ml. The solution was further diluted with the same medium to obtain a series of geometric concentrations. To the serial dilutions were added the seed cultures prepared by shaking culture of various test microorganisms shown in Tab. 5 in the BRAIN HEART INFUSION GROTH at 28° C. for 18 hours, the final cell count being about 1×10^5 /ml. […] The lowest concentration at which no cell growth was observed was the minimum inhibitory concentration of the antibiotic PS-7 on the test microorganism. […] The minimum inhibitory concentrations on test strains were determined in the same manner as mentioned above.

Proteus vulgaris P-5 [2] = experiment: MIC, broth dilution method; details: Proteus vulgaris, P5, 20 h, read-out: Minimum inhibitory concentration
[3] = tested on: Gram-positive and Gram-negative bacteria; experiment: Antibiotic spectra (summary in words); assay type: cell-based; details: for Antibiotic activity against Gram-negative bacteria resistant to β-lactam antibiotics: genera Citrobacter, Proteus, Klebsiella, Enterobacter, Serratia as named at the place; for Antibiotic activity against Gram-positive bacteria: genera Staphylococcus, Diplococcus, Streptococcus, Bacillus as named at the place
[4] = tested on: Streptococcus pyogenes NY-5; experiment: MIC, broth dilution method; details: Streptococcus pyogenes, NY5, 20 h, read-out: Minimum inhibitory concentration
[5] = Stability (general statements); assay type: physicochemical; details: general statement
Solubility = assay type: physicochemical; details: 5 mg in 0.1 ml of solvent, shaking, 20° C.; for Solubility in organic solvents: solvents named in the value
Text: The results are as shown as below:
The results are as shown below:

[6] = tested on: Staphylococcus aureus Smith; experiment: In vivo activity in intraperitoneally infected mice; design: species or system DDY male mice; details: for ED50: Staphylococcus aureus, sc, mice infected i.p. with 5×10^5 cells/mouse, subcutaneous injection just after infection, read-out: 50% curative dose (CD50); for Therapeutic effect in infected mice: mice infected with pathogenic Gram-positive bacteria
Method: Soon after infection, an aqueous solution of the antibiotic PS-5 sodium salt preparation was subcutaneously injected.
Activity of the antibiotic PS-7 obtained above was determined using mice infected with Staphylococcus aureus Smith at 5×10^5 cells a mouse intraperitoneally. Sodium salt of the antibiotic PS-7 was administered to the mice subcutaneously immediately after the infection.
The tritylation product of antibiotic PS-6 was subcutaneously injected just after infection. The 50% curative dose on male DDY mice (SHIZUOKA) was 5.5 mg/kg.
The tritylation product of antibiotic PS-7 was subcutaneously injected just after infection. The 50% curative dose on make DDY mice (SHIZUOKA) was 4.5 mg/kg.

Citrobacter freundii E-9 [7] = experiment: MIC, broth dilution method; assay type: cell-based; details: Citrobacter freundii, E9, 20 h, lactamase producing organism, read-out: Minimum inhibitory concentration
Method: (§1) Sodium salt of the antibiotic PS-7 was dissolved and diluted with the BRAIN HEART INFUSION BROTH "Eiken" at a concentration between 5 μg/ml and 100 μg/ml. The solution was further diluted with the same medium to obtain a series of geometric concentrations. To the serial dilutions were added the seed cultures prepared by shaking culture of various test microorganisms shown in Tab. 5 in the BRAIN HEART INFUSION GROTH at 28° C. for 18 hours, the final cell count being about 1×10^5 /ml. […] The lowest concentration at which no cell growth was observed was the minimum inhibitory concentration of the antibiotic PS-7 on the test microorganism. […] . The minimum inhibitory concentrations on test strains were determined in the same manner as mentioned above. […] For the comparison, the results on the known antibiotics Cephazolin and Cefoxitin are also given in the same table.

[8] = tested on: Diplococcus pneumoniae Type III; experiment: MIC, broth dilution method; assay type: cell-based; details: Streptococcus pneumoniae, 20 h, 10% of horse blood in the medium, read-out: Minimum inhibitory concentration
Method: as §1

[9] = tested on: Staphylococcus aureus FDA 209P; experiment: MIC, broth dilution method; assay type: cell-based; details: FDA209P, 20 h, final methanol not above 10%, read-out: Minimum inhibitory concentration
Method: as §1

[10] = tested on: Alcaligenes faecalis B-326; experiment: MIC, broth dilution method; assay type: cell-based; details: Alcaligenes faecalis, B326, 20 h, read-out: Minimum inhibitory concentration
Method: as §1

[11] = Acute toxicity, intraperitoneal administration; assay type: in vivo, DDY male mice; details: mice, 500 mg/kg
[12] = tested on: Klebsiella pneumoniae K-2; experiment: MIC, broth dilution method; details: Klebsiella pneumoniae, K2, 20 h, read-out: Minimum inhibitory concentration
Citrobacter freundii E-9 [13] = experiment: Potentiating and synergistic effect, pulp disc inhibition zone on agar plate; assay type: cell-based
Method: (§2) 10 ml of 2.5 folds diluted nutrient agar (pH 7.0) containing 50 μg/ml of penicillin G or cephaloridine was seeded with the β-lactamase producing and β-lactam-resistant microorganisms and poured in a 9 cm Petri dish to provide the bio-assay agar plate. On this assay plate, 8 mm of pulp discs each containing 20 μl of antibiotic PS-6 solution at the concentration of 240 μg/ml were placed and incubated at 35° C. for 18 hours before reading the inhibition zones. A control assay plate was similarly prepared without penicillin G or cephaloridine. As reference antibiotics, 10,000 μg/ml of penicillin G or 20 μl of cephaloridine were disc-assayed under the same conditions.

Serratia marcescens S-18 = experiment: as above; assay type: cell-based
Method: as §2

Proteus vulgaris P-5 [14] = experiment: as above; assay type: cell-based
Method: as §2, with “On this assay plate, 8 mm of pulp discs each containing 20 μl of antibiotic PS-6 solution at the concentration of 240 μg/ml were placed and incubated at 35° C. for 18 hours before reading the inhibition zones.” left out
(§3) Cepholoridine was added to a 2.5-times diluted nutrient agar, pH 7.0 and the medium was inoculated with a β-lactam-producing strain that produceds β-lactamase. Ten ml of the medium was spread and solidified in a petri dish of 9 cm in diameter to prepare an assay plate. […] Each 20 μl of the solution and its 2- and 4-times diluted solutions was soaked in a pulp disc of 8 mm in diameter. To the surface of the above nutrient agar was placed the pulp disc and the size of the growth inhibitory zone around the disc was examined after incubation at 35° C. for 18 hours. […] In addition, for the comparison, a similar experiment was also performed with a pulp disk soaked with 20 μl of 10,000 μg/ml Penicillin G or Cepholoridine solution in place of the antibiotic PS-7.

[15] = tested on: β-lactamase-producing, β-lactam-resistant bacteria; experiment: Increase of the antibiotic activity of other antibiotics (summary in words); assay type: cell-based; details: β-lactamase-producing bacteria such as Proteus vulgaris, Serratia marcescens
Method: as §2, with “On this assay plate, 8 mm of pulp discs each containing 20 μl of antibiotic PS-6 solution at the concentration of 240 μg/ml were placed and incubated at 35° C. for 18 hours before reading the inhibition zones.” left out
as §3

[16] = Table 6, agar containing 50 μg/ml of cephaloridine, disc 20 μl, PS-6 240 μg/ml, reference antibiotics 10,000 μg/ml
[17] = Table 6, agar containing 50 μg/ml of penicillin G, disc 20 μl, PS-6 240 μg/ml, reference antibiotics 10,000 μg/ml

Compound: CC(=O)NCCSC1=C(C(=O)OC(c2ccccc2)(c2ccccc2)c2ccccc2)N2C(=O)C(C(C)C)C2C1 (stereo not drawn) [Antibiotic PS-6 trityl ester]
- MIC ([1]; Table 9): 25 µg/mL (≈ 45.1 µM)
- MIC (Proteus vulgaris P-5 [2]): 25 µg/mL (≈ 45.1 µM)
- Antibiotic activity against Gram-negative bacteria of the genera Klebsiella, Proteus [3]: good activity
- Antibiotic activity against Gram-negative bacteria of the genus Alcaligenes (Comamonas) [3]: very strong activity
- Antibiotic activity against Gram-negative bacteria resistant to β-lactam antibiotics [3]: strong activity
- Antibiotic activity against Gram-negative bacteria resistant to β-lactam antibiotics ([3]; listed as trityl ester of antibiotic PS-6): strong antibiotic activity
- Antibiotic activity against Gram-positive bacteria [3]: very strong activity
- MIC [4]: 0.33 µg/mL (≈ 0.595 µM)
- Stability [5]: more stable than antibiotic PS-6 or PS-7
- Solubility in water (Solubility): Substantially insoluble
- Solubility in organic solvents (Solubility): Substantially insoluble in water and n-hexane; also recorded: Highly soluble in benzene, ethyl acetate, chloroform, methanol, ethanol, acetone, dimethylformamide (DMF) and dimethylsulfoxide (DMSO)
- ED50 [6]: 5.5 mg/kg
- Therapeutic effect in infected mice [6]: marked therapeutic effect
- MIC (Citrobacter freundii E-9 [7]; Table 9): 12.5 µg/mL (≈ 22.5 µM)
- MIC ([8]; Table 9): 0.33 µg/mL (≈ 0.595 µM)
- MIC ([9]; Table 9, ester dissolved in methanol): 0.33 µg/mL (≈ 0.595 µM)
- MIC ([10]; Table 9): 1.34 µg/mL (≈ 2.42 µM)
- Acute toxicity [11]: no acute toxicity
- MIC [12]: 20 µg/mL (≈ 36.1 µM)

Compound: CCC1C(=O)N2C(C(=O)OC(c3ccccc3)(c3ccccc3)c3ccccc3)=C(SC=CNC(C)=O)CC12 (stereo not drawn) [Antibiotic PS-7 trityl ester]
- MIC ([1]; Table 10): 25 µg/mL (≈ 46.4 µM)
- MIC (Proteus vulgaris P-5 [2]): 25 µg/mL (≈ 46.4 µM)
- Antibiotic activity against Gram-negative bacteria of the genera Klebsiella, Proteus [3]: good activity
- Antibiotic activity against Gram-negative bacteria of the genus Alcaligenes (Comamonas) [3]: very strong activity
- Antibiotic activity against Gram-negative bacteria resistant to β-lactam antibiotics [3]: strong activity
- Antibiotic activity against Gram-negative bacteria resistant to β-lactam antibiotics ([3]; listed as trityl ester of antibiotic PS-7): strong antibiotic activity
- Antibiotic activity against Gram-positive bacteria [3]: very strong activity
- MIC [4]: 0.16 µg/mL (≈ 0.297 µM)
- Stability [5]: more stable than antibiotic PS-6 or PS-7
- Solubility in water (Solubility): Substantially insoluble
- Solubility in organic solvents (Solubility): Highly soluble in benzene ethyl acetate, chloroform, methanol, ethanol, acetone, dimethylformamide (DMF) and dimethylsulfoxide (DMSO); also recorded: Substantially insoluble in water and n-hexane
- ED50 [6]: 4.5 mg/kg
- Therapeutic effect in infected mice [6]: marked therapeutic effect
- MIC (Citrobacter freundii E-9 [7]; Table 10): 6.25 µg/mL (≈ 11.6 µM)
- MIC ([8]; Table 10): 0.16 µg/mL (≈ 0.297 µM)
- MIC ([9]; Table 10, ester dissolved in methanol): 0.16 µg/mL (≈ 0.297 µM)
- MIC ([10]; Table 10): 1.34 µg/mL (≈ 2.49 µM)
- Acute toxicity [11]: no acute toxicity
- MIC [12]: 10 µg/mL (≈ 18.6 µM)

Compound: CC1(C)S[C@@H]2[C@H](NC(=O)Cc3ccccc3)C(=O)N2[C@H]1C(=O)O [penicillin G]
- zone of inhibition at 240 µg/mL (Citrobacter freundii E-9 [13]; Citrobacter freundii, E9, 18 h, read-out: Inhibition zone, Control): 0 mm
- Inhibition zone, with cephaloridine (Citrobacter freundii E-9 [13]; [16]): 0.0 mm
- Inhibition zone, with penicillin G (Citrobacter freundii E-9 [13]; [17]): 0.0 mm
- zone of inhibition at 240 µg/mL (Serratia marcescens S-18; Serratia marcescens, S18, 18 h, read-out: Inhibition zone, Control): 0 mm
- Inhibition zone, with cephaloridine (Serratia marcescens S-18; [16]): 0.0 mm
- Inhibition zone, with penicillin G (Serratia marcescens S-18; [17]): 0.0 mm
- zone of inhibition at 10000 µg/mL (Proteus vulgaris P-5 [14]; Proteus vulgaris, P5, 18 h, read-out: Diameter of inhibitory zone, No addition): 15 mm
- zone of inhibition at 240 µg/mL (Proteus vulgaris P-5 [14]; Proteus vulgaris, P5, 18 h, read-out: Inhibition zone, Control): 15 mm
- Inhibition zone, with cephaloridine (Proteus vulgaris P-5 [14]; [16]): 15.0 mm
- Inhibition zone, with penicillin G (Proteus vulgaris P-5 [14]; [17]): 15.0 mm
- Diameter of inhibitory zone, Cephaloridine-added (Proteus vulgaris P-5 [14]; Table 8, comparison disc 20 μl of 10,000 μg/ml, cephaloridine in the agar): 15.0 mm
- Synergistic enhancement of the activity of penicillin G or cephaloridine (β-lactam antibiotics) [15]: no synergistic effect
- Synergistic enhancement of the activity of penicillin G or cephaloridine (β-lactam antibiotics) ([15]; listed as Penicillin G): No enhancement of antimicrobial activity
